In US12624018B1, “Inhibitors of RIPK2 and medical uses thereof” (Odyssey Therapeutics, Inc., priority 2022, dated 2026) one finds IC50 data, which are given here for 30 compounds.

For orientation: pIC50 means −log10 of the IC50, conventionally taken in molar units.

This test deals with T1, RIPK2 enzyme (Homo sapiens, UniProt O43353).
T1 construct: purchased Carna 09-128
Briefly: RIPK2 inhibition (ADP-Glo Kinase Assay). As to conditions: RIPK2 5 nM, ATP 150 μM, MBP substrate, read-out: RIPK2 IC50. In kind it is biochemical. The method in brief: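 Swine MBP substrate; compound and 5 nM RIPK2 first mixed for 30 min at room temperature; buffer pH 7.5 HEPES 50 mM with 10 mM MgCl2, 2 mM DTT, 1 mM EGTA, Brij-35, BSA.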
(In ADP-Glo the light output rises with the ADP produced.)

pIC50: −log10 of the molar value. A value given as a limit tells only on which side of the number the result lay.

T1 sequence (O43353 1-299 limits assumed): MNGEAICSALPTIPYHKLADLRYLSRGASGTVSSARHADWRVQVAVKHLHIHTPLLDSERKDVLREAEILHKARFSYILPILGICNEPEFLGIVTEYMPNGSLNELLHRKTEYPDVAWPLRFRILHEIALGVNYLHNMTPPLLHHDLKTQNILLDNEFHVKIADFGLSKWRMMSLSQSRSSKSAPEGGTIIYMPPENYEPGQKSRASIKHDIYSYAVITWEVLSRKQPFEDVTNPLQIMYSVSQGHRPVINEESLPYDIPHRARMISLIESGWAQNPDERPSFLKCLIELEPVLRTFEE

`Cc1cc(CC(=O)Nc2cnn(C(C)(C)C)c2)ccc1Oc1ccnc2ccc(OC[C@@H]3CCNC3)cc12` [Compound 192, (R)-N-(1-(tert-butyl)-1H-pyrazol-4-yl)-2-(3-methyl-4-((6-(pyrrolidin-3-ylmethoxy)quinolin-4-yl)oxy)phenyl) acetamide]: the pIC50 is > 8.60.
For the compound `Cc1cc(CC(=O)Nc2cnn(C(C)(C)C)c2)ccc1Oc1ccnc2ccc(OC[C@H]3CCNC3)cc12` [Compound 193, (S)-N-(1-(tert-butyl)-1H-pyrazol-4-yl)-2-(3-methyl-4-((6-(pyrrolidin-3-ylmethoxy)quinolin-4-yl)oxy)phenyl) acetamide], the pIC50 is > 8.60.
As for `Cc1cc(CC(=O)Nc2cnn(C(C)(C)C)c2)ccc1Oc1ccnc2ccc(OC[C@@H]3CCCNC3)cc12` [Compound 194, (R)-N-(1-(tert-butyl)-1H-pyrazol-4-yl)-2-(3-methyl-4-((6-(piperidin-3-ylmethoxy)quinolin-4-yl)oxy)phenyl) acetamide], the figure is > 8.60; as for `Cc1cc(CC(=O)Nc2cnn(C(C)(C)C)c2)ccc1Oc1ccnc2ccc(OC[C@H]3CCCNC3)cc12` [Compound 195, (S)-N-(1-(tert-butyl)-1H-pyrazol-4-yl)-2-(3-methyl-4-((6-(piperidin-3-ylmethoxy)quinolin-4-yl)oxy)phenyl) acetamide], > 8.60; as for `[2H]C([2H])([2H])S(=O)(=O)c1ccc2nccc(Oc3ccc(CC(=O)Nc4cnn(C(C)(C)C)c4)cc3C)c2c1` [Compound 198, N-(1-(tert-butyl)-1H-pyrazol-4-yl)-2-(3-methyl-4-((6-((methyl-d3)sulfonyl)quinolin-4-yl)oxy)phenyl)acetamide], > 8.60.
The figure for `Cc1cc(CC(=O)Nc2cnn(C(C)(C)C)c2)ccc1Oc1ccnc2ccc(S(=O)(=O)CCO)cc12` [Compound 203, N-(1-(tert-butyl)-1H-pyrazol-4-yl)-2-(4-((6-((2-hydroxyethyl)sulfonyl)quinolin-4-yl)oxy)-3-methylphenyl)acetamide] is > 8.60; for `COCCS(=O)(=O)c1ccc2nccc(Oc3ccc(CC(=O)Nc4cnn(C(C)(C)C)c4)cc3C)c2c1` [Compound 204, N-(1-(tert-butyl)-1H-pyrazol-4-yl)-2-(4-((6-((2-methoxyethyl)sulfonyl)quinolin-4-yl)oxy)-3-methylphenyl)acetamide] it is > 8.60; for `Cc1cc(CC(=O)Nc2cnn(C(C)(C)C)c2)ccc1Oc1ccnc2ccc(S(=O)(=O)CC3CC3)cc12` [Compound 205, N-(1-(tert-butyl)-1H-pyrazol-4-yl)-2-(4-((6-((cyclopropylmethyl)sulfonyl)quinolin-4-yl)oxy)-3-methylphenyl)acetamide] it is > 8.60.
The figure for `Cc1cc(CC(=O)Nc2cnn(C(C)(C)C)c2)ccc1Oc1ccnc2ccc(S(=O)(=O)C(C)C)cc12` [Compound 206, N-(1-(tert-butyl)-1H-pyrazol-4-yl)-2-(4-((6-(isopropylsulfonyl)quinolin-4-yl)oxy)-3-methylphenyl)acetamide] is > 8.60; for `Cc1cc(CC(=O)Nc2cnn(C(C)(C)C)c2)ccc1Oc1ccnc2ccc(C(=O)N3CCNCC3)cc12` [Compound 207, N-(1-(tert-butyl)-1H-pyrazol-4-yl)-2-(3-methyl-4-((6-(piperazine-1-carbonyl)quinolin-4-yl)oxy)phenyl) acetamide] it is > 8.60.
On to `Cc1cc(CC(=O)Nc2cnn(C(C)(C)C)c2)ccc1Oc1ccnc2ccc(C(=O)N3CC(F)C3)cc12` [Compound 208, N-(1-(tert-butyl)-1H-pyrazol-4-yl)-2-(4-((6-(3-fluoro-azetidine-1-carbonyl)quinolin-4-yl)oxy)-3-methyl-phenyl) acetamide], for which the pIC50 was > 8.60.
As for `Cc1cc(CC(=O)Nc2cnn(C(C)(C)C)c2)ccc1Oc1ccnc2ccc(C(=O)N3CC(C#N)C3)cc12` [Compound 209, N-(1-(tert-butyl)-1H-pyrazol-4-yl)-2-(4-((6-(3-cyano-azetidine-1-carbonyl)quinolin-4-yl)oxy)-3-methyl-phenyl) acetamide], the figure is > 8.60.
As for `Cc1cc(CC(=O)Nc2cnn(C(C)(C)C)c2)ccc1Oc1ccnc2ccc(C(=O)N3CCCC3)cc12` [Compound 210, N-(1-(tert-butyl)-1H-pyrazol-4-yl)-2-(3-methyl-4-((6-(pyrrolidine-1-carbonyl)quinolin-4-yl)oxy)phenyl) acetamide], the figure is > 8.60.
As for `Cc1cc(CC(=O)Nc2cnn(C(C)(C)C)c2)ccc1Oc1ccnc2ccc(OC3CC4(CNC4)C3)cc12` [Compound 211, 2-(4-((6-((2-azaspiro[3.3]heptan-6-yl)oxy)quinolin-4-yl)oxy)-3-methyl-phenyl)-N-(1-(tert-butyl)-1H-pyrazol-4-yl)acetamide], the figure is > 8.60; as for `Cc1cc(CC(=O)Nc2cnn(C(C)C)c2)ccc1Oc1ccnc2ccc(S(C)(=O)=O)cc12` [Compound 212, N-(1-isopropyl-1H-pyrazol-4-yl)-2-(3-methyl-4-((6-(methylsulfonyl)quinolin-4-yl)oxy)phenyl)acetamide], > 8.60.
Take `Cc1cc(CC(=O)Nc2cnn(C3CCC3)c2)ccc1Oc1ccnc2ccc(S(C)(=O)=O)cc12` [Compound 213, N-(1-cyclobutyl-1H-pyrazol-4-yl)-2-(3-methyl-4-((6-(methylsulfonyl)quinolin-4-yl)oxy)phenyl)acetamide]: the pIC50 is > 8.60.
As for `Cc1cc(CC(=O)Nc2cnn(C3CCCC3)c2)ccc1Oc1ccnc2ccc(S(C)(=O)=O)cc12` [Compound 214, N-(1-cyclopentyl-1H-pyrazol-4-yl)-2-(3-methyl-4-((6-(methylsulfonyl)quinolin-4-yl)oxy)phenyl)acetamide], the figure is > 8.60.
The figure for `COc1cc2nccc(Oc3ccc(CC(=O)Nc4cnn(C(C)(C)C)c4)cc3C)c2cc1S(C)(=O)=O` [Compound 216, N-(1-(tert-butyl)-1H-pyrazol-4-yl)-2-(4-((7-methoxy-6-(methylsulfonyl)quinolin-4-yl)oxy)-3-methylphenyl) acetamide] is > 8.60.
The figure for `CCOc1cc2nccc(Oc3ccc(CC(=O)Nc4cnn(C(C)(C)C)c4)cc3C)c2cc1S(C)(=O)=O` [Compound 217, N-(1-(tert-butyl)-1H-pyrazol-4-yl)-2-(4-((7-ethoxy-6-(methylsulfonyl)quinolin-4-yl)oxy)-3-methylphenyl) acetamide] is > 8.60; for `Cc1cc(CC(=O)Nc2cnn(C(C)(C)C)c2)ccc1Oc1ccnc2cc(OC(F)F)c(S(C)(=O)=O)cc12` [Compound 218, N-(1-(tert-butyl)-1H-pyrazol-4-yl)-2-(4-((7-(difluoromethoxy)-6-(methylsulfonyl)quinolin-4-yl)oxy)-3-methylphenyl) acetamide] it is > 8.60.
As for `Cc1cc(CC(=O)Nc2cnn(C(C)(C)C)c2)ccc1Oc1ccnc2cc(OCC(F)(F)F)c(S(C)(=O)=O)cc12` [Compound 219, N-(1-(tert-butyl)-1H-pyrazol-4-yl)-2-(3-methyl-4-((6-(methylsulfonyl)-7-(2,2,2-trifluoroethoxy)quinolin-4-yl)oxy)phenyl)acetamide], the pIC50 is > 8.60.
For the compound `Cc1cc(CC(=O)Nc2cnn(C(C)(C)C)c2)ccc1Oc1ccnc2ccc(OCCN)cc12` [Compound 222, 2-(4-((6-(2-aminoethoxy)quinolin-4-yl)oxy)-3-methyl-phenyl)-N-(1-(tert-butyl)-1H-pyrazol-4-yl)acetamide], the pIC50 is > 8.60.
The figure for `Cc1cc(CC(=O)Nc2cnn(C(C)(C)C)c2)ccc1Oc1ccnc2ccc(OCCO)cc12` [Compound 223, N-(1-(tert-butyl)-1H-pyrazol-4-yl)-2-(4-((6-(2-hydroxy-ethoxy)quinolin-4-yl)oxy)-3-methylphenyl) acetamide] is > 8.60; for `Cc1cc(CC(=O)Nc2cnn(C(C)(C)C)c2)ccc1Oc1ccnc2ccc(OCC(C)(C)O)cc12` [Compound 226, N-(1-(tert-butyl)-1H-pyrazol-4-yl)-2-(4-((6-(2-hydroxy-2-methyl-propoxy)quinolin-4-yl)oxy)-3-methylphenyl) acetamide] it is > 8.60.
The figure for `Cc1cc(CC(=O)Nc2cnn(C(C)(C)C)c2)ccc1Oc1ccnc2ccc(OCC(=O)O)cc12` [Compound 227, 2-((4-(4-(2-((1-(tert-butyl)-1H-pyrazol-4-yl)amino)-2-oxoethyl)-2-methyl-phenoxy)quinolin-6-yl)oxy)acetic acid] is > 8.60; for `Cc1cc(CC(=O)Nc2cnn(C(C)(C)C)c2)ccc1Oc1ccnc2ccc(OC3CNC3)cc12` [Compound 228, 2-(4-((6-(azetidin-3-yloxy)quinolin-4-yl)oxy)-3-methyl-pheny 1)-N-(1-(tert-butyl)-1H-pyrazol-4-yl)acetamide] it is 8.23.
`CC(=O)N1CC(Oc2ccc3nccc(Oc4ccc(CC(=O)Nc5cnn(C(C)(C)C)c5)cc4C)c3c2)C1` [Compound 229, 2-(4-((6-((1-acetylazetidin-3-yl)oxy)quinolin-4-yl)oxy)-3-methyl-phenyl)-N-(1-(tert-butyl)-1H-pyrazol-4-yl)acetamide]: the pIC50 is > 8.60.
As for `Cc1cc(CC(=O)Nc2cc(C(C)(C)C)n(C)n2)ccc1Oc1ccnc2ccc(S(C)(=O)=O)cc12` [Compound 230, N-(5-(tert-butyl)-1-methyl-1H-pyrazol-3-yl)-2-(3-methyl-4-((6-(methylsulfonyl)quinolin-4-yl)oxy)phenyl)acetamide], the figure is > 8.60; as for `[2H]C([2H])([2H])n1nc(NC(=O)Cc2ccc(Oc3ccnc4ccc(S(C)(=O)=O)cc34)c(C)c2)cc1C(C)(C)C` [Compound 231, N-(5-(tert-butyl)-1-(methyl-d3)-1H-pyrazol-3-yl)-2-(3-methyl-4-((6-(methylsulfonyl)quinolin-4-yl)oxy)phenyl)acetamide], > 8.60.
The figure for `CCn1nc(NC(=O)Cc2ccc(Oc3ccnc4ccc(S(C)(=O)=O)cc34)c(C)c2)cc1C(C)(C)C` [Compound 232, N-(5-(tert-butyl)-1-ethyl-1H-pyrazol-3-yl)-2-(3-methyl-4-((6-(methylsulfonyl)quinolin-4-yl)oxy)phenyl)acetamide] is > 8.60.
